Reference: patent publication US12168019B1, “8-hydroxy quinoline derivatives for enhancing telomerase reverse transcriptase (TERT) expression” (Sierra Sciences, Inc., priority 2010, dated 2024)

Test system: human TERT expression (hTERT mRNA transcripts)
Experiment: Quantitative real-time RT-PCR of hTERT mRNA transcripts in compound-treated cells; further: test concentration or dose not given here
Assay type: cell-based
Source text: Telomerase is a ribonucleoprotein complex composed of the catalytic protein subunit (human telomerase reverse transcriptase or hTERT) and the RNA template. hTERT expression level can be measured by PCR.
Quantitative Reverse Transcription PCR can be run according to procedures outlined in Yajima et al. (Yajima, T. et al. Quantitative Reverse Transcription-PCR Assay of the RNA Component of Human Telomerase Using the TaqMan Fluorogenic Detection System Clinical Chemistry, 44:12, 2441-2445, 1998).
The principle of real-time PCR was first described by Heid et al. (Heid C. A., Stevens J., Livak K. J., Williams P. M. Real time quantitative PCR. Genome Res., 6: 986-994, 1996). Briefly, amplification of the target sequence is monitored per PCR cycle by detecting the fluorescence signal emitted by an internal probe that is degraded by the 5′ nuclease activity of the Taq polymerase. The emission signal accumulates in each sample, and the Ct required to reach a given fluorescence threshold is determined (Ct stands for Cycle Threshold and is a measure of the number of PCR cycles that are required to amplify a target—thus, a lower Ct score means that there is more abundant hTERT mRNA). Thus, the C1 value of a sample inversely correlates to the quantity of the starting cDNA which correlates to the number of mRNA transcripts. Using the cDNA of known quantity, a standard curve can be generated and used to determine the starting amount of mRNA transcripts based on the […] of each sample.
Quantitative real-time PCR can be done on cDNA from test compound-treated and nontreated cells by use of a ABI Prism 7900 Sequence Detection System (PE Applied Biosystems, Foster City, CA) following the Assays-on-Demand protocol (PE Applied Biosystems, Foster City, CA). Quantitative data can be analyzed using the Sequence Detection System software version 2.1 (PE Applied Biosystems).
The following compounds were tested in assays designed to identify compounds that enhance human TERT expression. The compounds turned on human TERT expression in these assays.

| SMILES | Average Number of hTERT Transcripts |
| --- | --- |
| CCCCC(=O)NC(c1ccc(OC)cc1)c1cc(Cl)c2cccnc2c1O (stereo not shown) [Compound 1061] | 128.91 |
| COCc1cc(CN2CCCC2)c(O)c2ncccc12 [Compound 1097] | 77.36 |
| CC(=O)NC(c1ccco1)c1cc([N+](=O)[O-])c2cccnc2c1O (stereo not shown) [Compound 1034] | 44.71 |
| CCCCC(=O)NC(c1ccc(OC)cc1)c1cc([N+](=O)[O-])c2cccnc2c1O (stereo not shown) [Compound 1040] | 25.16 |
| O=C(COc1ccccc1)NC(/C=C/c1ccccc1)c1cc(Cl)c2cccnc2c1O (stereo not shown) [Compound 1015] | 63.93 |
| Cc1ccnc(NC(c2cccc(Br)c2)c2ccc3ccc(C)nc3c2O)c1 (stereo not shown) [Compound 1083] | 18.44 |
| COc1ccc(C(NC(=O)C2CCCCC2)c2cc([N+](=O)[O-])c3cccnc3c2O)cc1OC (stereo not shown) [Compound 1072] | 93.44 |
| O=C(NC(c1ccccc1)c1ccc2cccnc2c1O)c1ccccc1 (stereo not shown) [Compound 1086] | 48.77 |
| COCc1cc(CN2CCCCC2)c(O)c2ncccc12 [Compound 1098] | 102.7 |
| CN1CCN(Cc2cc(COCc3ccccc3)c3cccnc3c2O)CC1 [Compound 1003] | 10.05 |
| CC(C)C(=O)NC(c1ccco1)c1ccc2cccnc2c1O (stereo not shown) [Compound 1087] | 240.41 |
| Oc1c(C(Nc2ccccn2)c2c(Cl)cccc2Cl)ccc2cccnc12 (stereo not shown) [Compound 1009] | 50.29 |
| CCCC(=O)NC(c1ccco1)c1cc(Cl)c2cccnc2c1O (stereo not shown) [Compound 1077] | 15.88 |
| O=C(CCc1ccccc1)NC(c1ccc2c(c1)OCO2)c1ccc2cccnc2c1O (stereo not shown) [Compound 1065] | 24.47 |
| CCCCC(=O)NC(/C=C/c1ccccc1)c1cc([N+](=O)[O-])c2cccnc2c1O (stereo not shown) [Compound 1069] | 101.8 |
| CCC(=O)NC(c1ccc(OC)c(OC)c1)c1cc(Cl)c2cccnc2c1O (stereo not shown) [Compound 1032] | 39.96 |
| Oc1c(C(Nc2ccccc2Cl)c2ccccn2)ccc2cccnc12 (stereo not shown) [Compound 1095] | 3.46 |
| CC(C)C(=O)NC(c1ccccc1)c1cc([N+](=O)[O-])c2cccnc2c1O (stereo not shown) [Compound 1110] | 35.19 |
| Cc1cc(NC(c2ccccn2)c2ccc3cccnc3c2O)no1 (stereo not shown) [Compound 1104] | 19.27 |
| COc1ccc(C(=O)NC(/C=C/c2ccccc2)c2cc(Cl)c3cccnc3c2O)cc1 (stereo not shown) [Compound 1016] | 10.9 |
| CCCCC(=O)NC(c1cccs1)c1cc([N+](=O)[O-])c2cccnc2c1O (stereo not shown) [Compound 1063] | 205.2 |
| CCC(=O)NC(c1ccc(C)cc1)c1cc([N+](=O)[O-])c2cccnc2c1O (stereo not shown) [Compound 1049] | 49.12 |
| CC(=O)NC(c1ccc(Cl)cc1)c1cc([N+](=O)[O-])c2cccnc2c1O (stereo not shown) [Compound 1037] | 55.41 |

| SMILES | Average Number of hTERT Transcripts |
| --- | --- |
| O=S1(=O)CCC(N2COc3c(cc(Cl)c4cccnc34)C2)C1 (stereo not shown) [Compound 1107] | 7.97 |
| CC(=O)NC(c1ccc(Br)cc1)c1ccc2cccnc2c1O (stereo not shown) [Compound 1022] | 60.01 |
| CCOc1cc(C(NC(C)=O)c2cc([N+](=O)[O-])c3cccnc3c2O)ccc1O (stereo not shown) [Compound 1033] | 28.91 |
| Oc1ccc(CN2CCN(c3cccc(Cl)c3)CC2)c2cccnc12 [Compound 1113] | 29.15 |
| CC(=O)NC(c1ccc(C(C)C)cc1)c1cc(Cl)c2cccnc2c1O (stereo not shown) [Compound 1057] | 12.42 |
| CCCCC(=O)NC(c1ccccc1Cl)c1cc([N+](=O)[O-])c2cccnc2c1O (stereo not shown) [Compound 1031] | 44.8 |
| Cc1ccc(C(NC(=O)C2CCCCC2)c2ccc3cccnc3c2O)cc1 (stereo not shown) [Compound 1047] | 43.89 |
| CCC(=O)NC(c1ccccc1Cl)c1cc(Cl)c2cccnc2c1O (stereo not shown) [Compound 1041] | 20.78 |
| CCC(=O)NC(c1ccccc1Cl)c1cc([N+](=O)[O-])c2cccnc2c1O (stereo not shown) [Compound 1074] | 49.89 |
| Oc1c(C(Nc2ccccn2)c2cccc(Cl)c2Cl)ccc2cccnc12 (stereo not shown) [Compound 1006] | 25.82 |
| CCC(=O)NC(c1ccccc1OC)c1cc(Cl)c2cccnc2c1O (stereo not shown) [Compound 1043] | 15.13 |
| CCCC(=O)NC(c1ccc(C(C)C)cc1)c1cc([N+](=O)[O-])c2cccnc2c1O (stereo not shown) [Compound 1056] | 62.15 |
| CC(=O)NC(c1ccc(C)cc1)c1ccc2cccnc2c1O (stereo not shown) [Compound 1024] | 165.68 |
| CC(=O)NC(c1cccs1)c1ccc2cccnc2c1O (stereo not shown) [Compound 1058] | 47.99 |
| CCN1CCN(Cc2ccc3cccnc3c2O)CC1 [Compound 1089] | 38.29 |
| Oc1c(C(Nc2ccccn2)c2ccc(Cl)c(Cl)c2)ccc2cccnc12 (stereo not shown) [Compound 1082] | 7.54 |
| CCC(=O)NC(c1ccc(N(C)C)cc1)c1ccc2cccnc2c1O (stereo not shown) [Compound 1001] | 12.47 |
| CCC(=O)NC(/C=C/c1ccccc1)c1cc([N+](=O)[O-])c2cccnc2c1O (stereo not shown) [Compound 1035] | 66.72 |
| O=C(CCc1ccccc1)NC(c1ccc(Cl)cc1)c1ccc2cccnc2c1O (stereo not shown) [Compound 1109] | 34.36 |
| CC1CCN(Cc2cc(COC(C)C)c3cccnc3c2O)CC1 [Compound 1103] | 70.5 |
| CCCCC(=O)NC(c1ccco1)c1cc([N+](=O)[O-])c2cccnc2c1O (stereo not shown) [Compound 1055] | 28.89 |
| COc1ccc(C(NC(C)=O)c2ccc3cccnc3c2O)cc1OC (stereo not shown) [Compound 1023] | 160.65 |
| Oc1c(C(Nc2ccccn2)c2ccc(OC3CCCC3)cc2)ccc2cccnc12 (stereo not shown) [Compound 1004] | 12.11 |

| SMILES | Average Number of hTERT Transcripts |
| --- | --- |
| CCCCC(=O)NC(c1ccccc1OC)c1cc([N+](=O)[O-])c2cccnc2c1O (stereo not shown) [Compound 1027] | 19.72 |
| CCC(=O)NC(c1ccccc1OC)c1cc([N+](=O)[O-])c2cccnc2c1O (stereo not shown) [Compound 1051] | 45.24 |
| CC(C)OCc1cc(CN2CCCCC2)c(O)c2ncccc12 [Compound 1102] | 351.44 |
| CCCCC(=O)NC(c1ccc(Cl)cc1)c1cc([N+](=O)[O-])c2cccnc2c1O (stereo not shown) [Compound 1054] | 8.59 |
| CC(C)C(=O)NC(c1ccc(C(C)C)cc1)c1cc(Cl)c2cccnc2c1O (stereo not shown) [Compound 1062] | 47.98 |
| COc1cccc(C(=O)NC(/C=C/c2ccccc2)c2cc(Cl)c3cccnc3c2O)c1 (stereo not shown) [Compound 1017] | 96.98 |
| CCCC(=O)NC(c1cccs1)c1cc([N+](=O)[O-])c2cccnc2c1O (stereo not shown) [Compound 1048] | 58.04 |
| Cc1ccc(C(NC(=O)C(C)C)c2ccc3cccnc3c2O)cc1 (stereo not shown) [Compound 1088] | 191.81 |
| CC(=O)NC(c1ccc(C(C)C)cc1)c1ccc2cccnc2c1O (stereo not shown) [Compound 1030] | 26.47 |
| CC(C)C(=O)NC(c1ccc(Cl)cc1Cl)c1ccc2cccnc2c1O (stereo not shown) [Compound 1042] | 10.53 |
| COc1ccc(C(=O)NC(c2ccc(Cl)cc2)c2cc(Cl)c3cccnc3c2O)cc1 (stereo not shown) [Compound 1014] | 11.55 |
| CCCCC(=O)NC(c1cccs1)c1cc(Cl)c2cccnc2c1O (stereo not shown) [Compound 1067] | 16.2 |
| CCOCc1cc(CN2CCCCC2)c(O)c2ncccc12 [Compound 1099] | 67.59 |
| Cc1ccc2ccc(C(Nc3ccccn3)c3cccc([N+](=O)[O-])c3)c(O)c2n1 (stereo not shown) [Compound 1078] | 36.96 |
| Cc1ccc2ccc(C(Nc3ccccn3)c3ccccc3Cl)c(O)c2n1 (stereo not shown) [Compound 1111] | 35.20 |
| CC(C)C(=O)NC(c1ccc(C(C)C)cc1)c1cc([N+](=O)[O-])c2cccnc2c1O (stereo not shown) [Compound 1071] | 70.74 |
| COc1ccc(C(=O)NC(c2ccco2)c2cc(Cl)c3cccnc3c2O)cc1 (stereo not shown) [Compound 1012] | 12.01 |
| CCCCC(=O)NC(c1ccc(OC)c(OC)c1)c1cc([N+](=O)[O-])c2cccnc2c1O (stereo not shown) [Compound 1053] | 47.54 |
| CCN(CC)c1ccc(C(NC(=O)C(C)C)c2ccc3cccnc3c2O)cc1 (stereo not shown) [Compound 1060] | 65.91 |
| CCCC(=O)NC(c1ccc(Cl)cc1)c1cc([N+](=O)[O-])c2cccnc2c1O (stereo not shown) [Compound 1044] | 92.93 |
| CCCOCc1cc(CN2CCN(C)CC2)c(O)c2ncccc12 [Compound 1101] | 24.8 |
